{"source": "patent US12692232B2", "about": "“Indole carboxamide compound, preparation therefor and use thereof” (NANJING RUISHUNING MEDICAL TECHNOLOGY CO., LTD., priority 2021, dated 2026)", "biological_target": "T1, TRPC6 channel (Homo sapiens, UniProt Q9Y210)", "T1 sequence (Q9Y210 1-931)": "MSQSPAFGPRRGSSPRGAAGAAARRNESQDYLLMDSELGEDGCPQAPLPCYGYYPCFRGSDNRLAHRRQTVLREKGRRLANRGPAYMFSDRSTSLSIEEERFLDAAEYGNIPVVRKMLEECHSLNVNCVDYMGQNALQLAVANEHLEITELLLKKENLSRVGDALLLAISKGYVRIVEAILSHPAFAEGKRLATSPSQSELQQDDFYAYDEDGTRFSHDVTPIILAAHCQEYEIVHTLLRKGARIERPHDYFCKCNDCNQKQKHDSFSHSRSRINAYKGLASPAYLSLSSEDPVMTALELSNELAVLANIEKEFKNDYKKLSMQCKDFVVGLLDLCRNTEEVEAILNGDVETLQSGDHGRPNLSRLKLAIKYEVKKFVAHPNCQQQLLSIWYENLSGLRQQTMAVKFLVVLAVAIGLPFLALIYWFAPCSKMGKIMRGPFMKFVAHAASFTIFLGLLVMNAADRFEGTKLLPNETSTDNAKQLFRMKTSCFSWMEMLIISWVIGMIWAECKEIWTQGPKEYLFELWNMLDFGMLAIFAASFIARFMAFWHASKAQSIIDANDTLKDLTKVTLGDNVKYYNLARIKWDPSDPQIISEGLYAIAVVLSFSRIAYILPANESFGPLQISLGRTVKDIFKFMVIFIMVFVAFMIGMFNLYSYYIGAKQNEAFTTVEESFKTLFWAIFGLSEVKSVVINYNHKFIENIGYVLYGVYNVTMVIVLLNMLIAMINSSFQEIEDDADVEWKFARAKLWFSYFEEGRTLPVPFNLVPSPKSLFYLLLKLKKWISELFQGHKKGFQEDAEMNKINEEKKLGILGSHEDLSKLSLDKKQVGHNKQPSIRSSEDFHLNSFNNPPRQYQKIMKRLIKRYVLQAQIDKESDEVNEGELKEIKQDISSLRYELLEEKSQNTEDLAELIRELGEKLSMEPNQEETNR", "assay": "Inhibition of TRPC6 channel-mediated Ca2+ entry in HEK293hTRPC6 cells (Fura-2/AM, single concentration)", "format": "cell-based", "design": "expressed in transfected cells; host or cells: HEK293 (lentiviral transduction, puromycin selection)", "conditions": "compound 80 μM, OAG 80 μM; for inhibition at 80 µM: read-out: inhibition of Ca2+ entry into the cells via TRPC6 channels compared with the solvent control group", "experimental": "The inhibitory effect of the compounds of the present invention (as exemplified by Compound 1-1 obtained in Example 1) on TRPC6 channel-mediated Ca^2+ entry was determined using HEK293hTRPC6 as a tool cell overexpressing TRPC6 protein. The method was as follows:\nEstablishment of HEK293hTRPC6, a tool cell overexpressing TRPC6 protein: human embryonic kidney cells HEK293 were placed in DMEM culture medium (containing 10% inactivated fetal bovine serum, 100 U-mL^−1 penicillin, and 100 mg-L^−1 streptomycin) and cultured at 37° C. in a 5% CO2 incubator. Cells in the logarithmic growth phase were harvested at 50% and incubated with 25 μL of LV105-TRPC6 lentiviral particle suspension for 24 hours, and then the medium was changed. The experiment included a negative control group (no-load lentivirus) and a blank control group. The medium containing 2 μg/mL puromycin was changed after 48 h of infection until the cells in the blank group died. Western Blot assay was performed to detect the expression of TRPC6 protein in the cells to verify the successful construction of HEK293hTRPC6 cell.\nDetermination of the effect of the compounds on changes in intracellular calcium ion concentration ([Ca^2+]i) in HEK293hTRPC6 cells: HEK293hTRPC6 cell suspension was added to a 24-well plate with a coverslip and incubated at 37° C. in a 5% CO2 incubator for 24 h. The cell crawls were then removed and placed in the fluorescent dye Fura-2/AM, and incubated for 20 min at room temperature away from light. The slides were placed in the center of the bath, perfused with calcium-free Tyrode's solution for 5 min and fixed on the stage of an inverted fluorescence microscope. […] Fluorescence intensity was measured at different excitation wavelengths (340 nm, 380 nm) using a TILL Ion Imaging system (TILLvisION), and the value of fluorescence intensity emitted by intracellular fluorescent probe at different excitation wavelengths was substituted into the formula: [Ca^2+]i=Kd×β×(R−Rmin)/[…]. In the formula, R represents the experimentally determined fluorescence ratio (F340/F380); Kd represents the dissociation constant for the reaction of Fura-2/AM with Ca^2+, which is 386 nmol/L under physiological conditions; Rmax represents the F340/F380 when Ca^2+ is saturated (all Fura-2/AM is bound to Ca^2+); Rmin represents the F340/F380 when there is no Ca^2+; and β represents the ratio of fluorescence intensities at 380 nm in the absence of Ca^2+ and when Ca^2+ is saturated.\nExperimental results: the amount of TRPC6-mediated Ca^2+ entry under conditions of open TRPC6 channels and the presence of extracellular Ca^2+ was measured, and the actual biological activity of the compounds was assessed by comparison with the solvent control.", "data": [{"smiles": "Cn1c(C(=O)NCCC(=O)O)cc2ccccc21", "note": "[3-[(1-methyl-1H-indole-2-carbonyl)amino]propionic acid, reference compound]", "values": [{"measurement": "amount of TRPC6-mediated Ca2+ entry", "value": "0.10±0.01"}, {"measurement": "inhibition at 80 µM", "value": 53.9, "unit": "%"}]}, {"smiles": "CC(=O)OCCCNC(=O)c1c(C=O)c2ccccc2n1C", "note": "[compound 1-1, propyl 3-[(3-formyl-1-methyl-1H-indole-2-carbonyl)amino]acetate]", "values": [{"measurement": "amount of TRPC6-mediated Ca2+ entry", "value": "0.06±0.01"}, {"measurement": "inhibition at 80 µM", "value": 79.9, "unit": "%"}]}]}
